Patent US6710066B2, “Photochemotherapeutic method using 5-aminolevulinic acid and other precursors of endogenous porphyrins” (priority 1989, dated 2004)
Where two headings read alike, the source gives them in different places.

Legend:
[1] = test system: Dermatophyte (Trichophyton Species)
[2] = test system: endometrial and myometrial samples; assay: Fluorescence of endometrial and myometrial samples incubated with ALA; type: cell-based; conditions: 1 mM ALA
Procedure: The procedures of Example 1 (U.S. Pat. No. 5,422,093) were repeated with 1, 2, 3, 4 and 5 hour incubation periods using a level of 1 mM of ALA.

[3] = test system: P. chabaudi
Text: These examples involve the murine malarial parasites Plasmodium yoelii (lethal strain) and Plasmodium chabaudi (non-lethal strain) as models for human malaria.

[4] = test system: endometrium and myometrium; assay: Endometrial fluorescence in vivo following topical application of ALA in the non-human primate; parameters: species or system rhesus monkey; conditions: 50 mg ALA into uterine lumen, hysterectomy 3 hours later
Procedure: 50 mg of ALA was injected into the uterine lumen of an adult, healthy, female rhesus monkey following exposure of the uterus at laparotomy. A hysterectomy was performed 3 hours later and cross sectional slices incorporating endometrial and myometrial tissue were taken from the uterine specimen. These slices were subjected to examination by fluorescence microscopy as in Example 2 and 3 above.

[5] = test system: Enterobius vennicularis (pinworm); assay: PpIX accumulation on exposure to exogenous ALA, pinworm; conditions: exposed to exogenous ALA
[6] = test system: acne lesions; assay: PpIX induced fluorescence in subjects with truncal acne after topical ALA; type: in vivo, human
Procedure: Evaluation of PpIX induced fluorescence in 8 subjects with mild to moderate truncal acne was performed. Bacterial infections are frequently associated with lesions of acne, e.g., P. acne. Following evaluation of baseline acne lesion fluorescence, ALA solution 10 and 20% was applied to 10 5 cm^2 sites on the chest or back of volunteers and evaluated at times 0, 3, 8 and 24 hours after ALA application. One site of each concentration was also occluded with opaque film for 3 hours and evaluated at similar time points for comparison with unoccluded sites. Fluorescence of both acneiform lesions as well as surrounding normal skin was assessed visually using a 4 point grading system (0=none, 4=extremely severe) and documented photographically.

[7] = test system: Lumbricus terrestris (dewworm); assay: PpIX accumulation on exposure to exogenous ALA, dewworm; conditions: exposed to exogenous ALA
[8] = test system: L. donovani; assay: PpIX accumulation on exposure to exogenous ALA, Leishmania; conditions: exposed to exogenous ALA
[9] = very large doses; cited from earlier work
[10] = test system: endometrium (uterine horns); assay: Long term photodynamic endometrial ablation in rats; type: in vivo, rat
Procedure: Rats were divided into 2 groups (6 and 7 rats/group) and their uterine horns were injected with 4 or 8 mg ALA. Example 1, of U.S. application Ser. No. 08/082,113, filed Jun. 21, 1993 (U.S. Pat. No. 5,422,093), was repeated with the exception that all rats were exposed to light and the time from ALA administration to breeding was extended from 10-20 days to 60-70 days. All other procedures were identical to Example 1.
In the groups of rats (n=7) treated with 8 mg ALA 2 of 7 became pregnant in ALA treated uterine horns compared with 7 of 7 pregnancies in the saline treated horns.
In order to show normal uterine histology of a nonpregnant uterine horn contralateral to a pregnant uterine horn one uterine horn was ligated at its distal end prior to breeding. At gestation of 10-15 days nonpregnant uterine horns were harvested and histologically processed. The uterine mucosa was lined with columnar epithelium and there was hypertrophic infolding of endometrial tissue with tortuous glands.

[11] = test system: Candida albicans, Candida glabrata, Cryptococcus neoformans, Penicillium species, Aspergillus niger, Aspergillus fumigatus, Alternaria species, Saccharomyces …; assay: In vitro PpIX fluorescence of yeast and fungi treated with ALA; type: cell-based; conditions: ALA 1 mM to 100 mM or 20-80% solutions in water
Procedure: Clinical isolates of Candida albicans, Candida glabrata, and Cryptococcus neoformans and environmental isolates of Penicillium species, Aspergillus niger, Aspergillus fumigatus, and Alternaria species and Saccharomyces cerivisiae (brewer's yeast) obtained from the clinical microbiology laboratories of Kingston General Hospital, Kingston, Ontario, Canada were used. The organisms were plated, and during rapid growth were treated with various concentrations of ALA varying from 1 mM to 100 mM by flooding or by using diffusion wells in the agar, while the isolates of Penicillium and Aspergillus were treated with 40% or 80% solutions of ALA in water and the Penicillium species, Alternaria species, Aspergillus niger and Aspergillus fumigatus were treated with 20% ALA in water via diffusion wells.

[12] = cited from earlier work
[13] = test system: P. chabaudi; assay: In vitro photosensitization of P. chabaudi, cells of infected mice incubated with ALA; type: cell-based, mouse
[14] = test system: P. yoelii; assay: In vitro incubation of blood, spleen or marrow cells from P. yoelii infected mice with ALA; type: cell-based, mouse
Procedure: For the in vitro studies, no ALA was given to the donor mice. Two drops of whole blood were withdrawn from the tail of each mouse and placed in a 35 mm petri dish containing 3 cc of RPMI 1640 without phenol red.
i) a petri dish contained infected whole blood with […] ALA in RPMI.
ii) a second petri dish contained infected whole blood plus RPMI but not ALA.
iii) a third petri dish contained normal whole blood cells with 5 mM ALA in RPMI.
iv) a fourth petri dish contained normal whole blood cells with RPMI but not ALA.
All petri dishes were incubated at 37 Celsius and room air environment. Samples (0.5 cc) were taken at regular intervals from these incubated petri dishes to be analyzed in the flow cytometer to follow accumulation of PpIX.

[15] = test system: P. yoelii; assay: ALA-induced fluorescence within erythrocytes parasitized by P. yoelii, mice given ALA
[16] = ALA by intraperitoneal injection
[17] = ALA in vivo, then photoactivating light
[18] = exposed to exogenous ALA, Example 10 list
[19] = ALA solution 10 and 20%, unoccluded sites
[20] = sites occluded with opaque film for 3 hours
[21] = cells incubated with ALA in vitro
[22] = 250 mg/kg ALA intraperitoneal, heavily parasitized mice
[23] = ALA injected into infected mice

NCC(=O)CCC(=O)O [ALA, 5-Amino-4-oxopentanoic acid]
appearance of toe upon completion of treatment ([1]; human, in vivo): erythematous and somewhat edematous
subjective response during light exposure ([1]; human, in vivo): itching, stinging, and a sensation of mild burning
clinical outcome of fungal infection ([1]; over the next few months after one treatment): all clinical evidence of the fungal infection vanished
incubation time of maximum fluorescence in endometrial samples [2]: 4 h
fluorescence in myometrial samples ([2]; 1-5 hour incubation): No significant fluorescence
fluorescence in endometrial samples ([2]; incubated for 2 hours): No significant fluorescence
PpIX accumulation in non-infected erythrocytes and leukocytes [3, 16]: significant concentrations of PpIX did not accumulate
PpIX accumulation in plasmodia within erythrocytes [3, 16]: accumulated in many of the plasmodia
ability of plasmodia to accumulate calcein from calcein-AM [3, 17]: lost their normal ability to accumulate calcein
ability of plasmodia to cause malaria in recipient mice [3, 17]: lost their ability to cause malaria when injected into recipient mice
accumulation of fluorescing concentrations of PpIX [3, 18]: ALA-induced fluorescence
accumulation of photosensitizing concentrations of PpIX [3, 18]: ALA-induced photosensitization
damage to non-infected erythrocytes and leukocytes ([3]; mouse, in vivo): showed no morphological evidence of damage
fluorescence in endometrium [4]: Fluorescence was observed throughout the endometrium of all slices
fluorescence in myometrium [4]: No fluorescence was observed
accumulation of fluorescing concentrations of PpIX [5]: ALA-induced fluorescence
accumulation of photosensitizing concentrations of PpIX [5]: ALA-induced photosensitization
PpIX fluorescence by 24 hours [6, 19]: weak or no fluorescence
dose dependence of increase in PpIX fluorescence [6, 19]: dose dependent
specificity of PpIX fluorescence [6, 19]: specific for acne lesions and spared normal surrounding skin
time of maximum PpIX fluorescence [6, 19]: 8 h
PpIX fluorescence at 24 hours [6, 20]: remained present at 24 hours
distribution of PpIX fluorescence [6, 20]: developed PpIX fluorescence in both acne lesions and normal surrounding skin
accumulation of fluorescing concentrations of PpIX [7]: ALA-induced fluorescence
accumulation of photosensitizing concentrations of PpIX [7]: ALA-induced photosensitization
accumulation of fluorescing concentrations of PpIX [8]: ALA-induced fluorescence
effect on motor nerve conduction velocity [9]: transient decrease in motor nerve conduction velocity
implantations in uterine horns treated with ALA ([10]; 4 mg ALA, light, breeding 60-70 days after photodynamic treatment, n=6): no implantations
rats pregnant in ALA treated uterine horns ([10]; 8 mg ALA, light, breeding 60-70 days after treatment, n=7, saline horns 7 of 7): 2 of 7
endometrial histology after photodynamic treatment ([10]; despite hormonal stimulus of contralateral pregnancy): atrophic endometrium
PpIX accumulation in molds and yeasts [11]: Positive PpIX accumulation
solubility in water [12]: water soluble
PpIX accumulation in non-infected erythrocytes and leukocytes [13]: significant concentrations of PpIX did not accumulate
PpIX accumulation in plasmodia within erythrocytes [13]: accumulated within many of the plasmodia
PpIX fluorescence of whole blood incubated with ALA, flow cytometer ([14]; ALA in RPMI 1640 (5 nM infected, 5 mM normal blood as printed), 37 Celsius): Only cells from infected mice developed PpIX fluorescence when incubated with ALA
PpIX accumulation in non-infected erythrocytes and leukocytes [14, 21]: significant concentrations of PpIX did not accumulate
PpIX accumulation in plasmodia within erythrocytes [14, 21]: accumulated within many of the plasmodia
protoporphyrin fluorescence of pellet and supernatant after saponin hemolysis ([15]; 250 mg/kg ALA IP, 4 hours, excitation 410 nm, emission 635 nm): Protoporphyrin fluorescence was detected only in Plasmodial pellet derived from infected mice given ALA
fluorescence microscopy of blood/spleen cells ([15]; 250 mg/kg ALA intraperitoneal): Red fluorescence developed within parasitized erythrocytes
fluorescence flow cytometry of peripheral blood and spleen erythrocytes [15, 22]: developed red fluorescence
spectrophotofluorometry of blood and spleen cell pellets [15, 22]: Protoporphyrin was the only fluorophore that was identified
erythrocyte fluorescence by flow cytometer (accumulation of PpIX) ([15]; 250 mg/kg ALA intraperitoneal, tail blood at intervals): Only infected mice given ALA developed fluorescence in their erythrocytes
PpIX accumulation in non-infected erythrocytes and leukocytes [15, 23]: significant concentrations of PpIX did not accumulate
PpIX accumulation in plasmodia within erythrocytes [15, 23]: accumulated in many of the plasmodia
accumulation of fluorescing concentrations of PpIX [15, 18]: ALA-induced fluorescence
